Reference: patent publication US5696151A, “Compounds useful for the inhibition of the replication of HIV-1 and HIV-1 mutants” (priority 1995, dated 1997)
Values after ≈ are worked out from the molar mass of the structure shown.

What was measured:
Assay type in all cases: cell-based
HIV-1/Lys-138 = experiment: Inhibition of HIV-1 induced syncytium formation in CEM cells, RT mutant 138-Lys; conditions: Human immunodeficiency virus 1, CCRF-CEM, 96 h, Table 2B, day 4, averages of 2 to 3 independent experiments, read-out: Antiviral Activity of Comparative Compounds EC50, 138-Lys
Excerpt: (§1) CEM cells were obtained from the American Tissue Cell Culture Collection (Rockville, Md.). HIV-1(IIIB) was originally obtained from the culture supernatant of persistently HIV-1-infected H9 cells and was provided by R. C. Gallo and M. Popovic (National Cancer Institute, National Institutes of Health, Bethesda, Md.). […] 67: 5353-5359 (1993); HIV-1/Lys-138 ("Lys-138") was selected for resistance against TSAO-m^3T as described in Balzarini et al, Virology 192: 246-253 (1993) and Balzarini et al, Proc. Nat. Acad. Sci. USA 90: 6952-6956 (1993); HIV-1/181-Cys ("181-Cys") was selected for resistance against pyridinone L-697,661 as described in Balzarini et al, Virology 192: 246-253 (1993); and HIV-1/188-His ("188-His") was selected for resistance against HEPT as described in Balzarini et al, Mol. Pharmocol. 44: 694-701 (1993). 188-His was then further converted to HIV-1/188-Leu "188-Leu") upon further passage in cell culture in the absence of the HEPT.
(§2) CEM cells were suspended at ≈300,000 cells per ml of culture medium and infected with approximately 100 CCID50 (CCID50 being the 50% cell culture infective dose) of HIV-1(IIIB) or one of the HIV-1 RT mutant strains described above. Then 100 μl of the infected cell suspensions was added to 200 μl microtiter plate wells containing 100 μl of appropriate serial (5-fold) dilutions of the test compounds. The inhibitory effect of the test compounds on HIV-1 induced syncytium formation in CEM cells was examined microscopically on day 4 post infection.

HIV-1/106-Ala = experiment: Inhibition of HIV-1 induced syncytium formation in CEM cells, RT mutant 106-Ala; conditions: Human immunodeficiency virus 1, CCRF-CEM, 96 h, Table 2B, day 4, averages of 2 to 3 independent experiments, read-out: Antiviral Activity of Comparative Compounds EC50, 106-Ala
Excerpt: as §1, §2

in vitro = conditions: human, cem cells, CC50 (50% cytostatic concentration), Table 2B; CEM cell proliferation; averages of 2 to 3 independent experiments
Excerpt: as §1
^b 50% cytostatic concentration (i.e., compound concentration require
to inhibit CEM cell proliferation by 50%)

HIV-1(IIIB) = experiment: Inhibition of HIV-1 induced syncytium formation in CEM cells, wild type; conditions: Human immunodeficiency virus 1, IIIB, CCRF-CEM, 96 h, Table 2B, WT = HIV-1(IIIB), day 4, averages of 2 to 3 independent experiments, read-out: Antiviral Activity of Comparative Compounds EC50, WT
Excerpt: as §1, §2

HIV-1/100-Ile = experiment: Inhibition of HIV-1 induced syncytium formation in CEM cells, RT mutant 100-Ile; conditions: Human immunodeficiency virus 1, CCRF-CEM, 96 h, Table 2B, day 4, averages of 2 to 3 independent experiments, read-out: Antiviral Activity of Comparative Compounds EC50, 100-Ile
Excerpt: as §1, §2

HIV-1/181-Cys = experiment: Inhibition of HIV-1 induced syncytium formation in CEM cells, RT mutant 181-Cys; conditions: Human immunodeficiency virus 1, CCRF-CEM, 96 h, Table 2B, day 4, averages of 2 to 3 independent experiments, read-out: Antiviral Activity of Comparative Compounds EC50, 181-Cys
Excerpt: as §1, §2

## COc1ccccc1C(=O)Nc1ccc(Cl)c(C(=O)OC2CCCC2)c1 [Compound 68]
HIV-1/Lys-138
  EC50: 5.5 µg/mL (≈ 14.7 µM)
HIV-1/106-Ala
  EC50: 8.5 µg/mL (≈ 22.7 µM)
In vitro
  CC50: > 100 µg/mL
HIV-1(IIIB)
  EC50: 0.45 µg/mL (≈ 1.2 µM)
HIV-1/100-Ile
  EC50: 5 µg/mL (≈ 13.4 µM)
HIV-1/181-Cys
  EC50: 8.5 µg/mL (≈ 22.7 µM)

## COc1ccccc1C(=S)Nc1ccc(Cl)c(C(=O)OC2CCCC2)c1 [Compound 69]
HIV-1/Lys-138
  EC50: 0.55 µg/mL (≈ 1.41 µM)
HIV-1/106-Ala
  EC50: 0.65 µg/mL (≈ 1.67 µM)
In vitro
  CC50: 10 µg/mL (≈ 25.6 µM)
HIV-1(IIIB)
  EC50: 0.04 µg/mL (≈ 0.103 µM)
HIV-1/100-Ile
  EC50: 0.65 µg/mL (≈ 1.67 µM)
HIV-1/181-Cys
  EC50: 3.5 µg/mL (≈ 8.98 µM)

## Cc1ccccc1C(=O)Nc1ccc(Cl)c(C(=O)OC2CCCCC2)c1 [Compound 70]
HIV-1/Lys-138
  EC50: 5.5 µg/mL (≈ 14.8 µM)
HIV-1/106-Ala
  EC50: 6.5 µg/mL (≈ 17.5 µM)
In vitro
  CC50: 5.2 µg/mL (≈ 14 µM)
HIV-1(IIIB)
  EC50: 0.19 µg/mL (≈ 0.511 µM)
HIV-1/100-Ile
  EC50: 2.5 µg/mL (≈ 6.72 µM)
HIV-1/181-Cys
  EC50: 2.5 µg/mL (≈ 6.72 µM)

## Cc1ccccc1C(=S)Nc1ccc(Cl)c(C(=O)OC2CCCCC2)c1 [Compound 71]
HIV-1/Lys-138
  EC50: 3 µg/mL (≈ 7.73 µM)
HIV-1/106-Ala
  EC50: 3 µg/mL (≈ 7.73 µM)
In vitro
  CC50: 4 µg/mL (≈ 10.3 µM)
HIV-1(IIIB)
  EC50: 0.049 µg/mL (≈ 0.126 µM)
HIV-1/100-Ile
  EC50: 0.6 µg/mL (≈ 1.55 µM)
HIV-1/181-Cys
  EC50: 1.6 µg/mL (≈ 4.12 µM)

## CON=Cc1cc(NC(=S)c2ccoc2C)ccc1Cl [Compound 72]
HIV-1/Lys-138
  EC50: 0.085 µg/mL (≈ 0.275 µM)
HIV-1/106-Ala
  EC50: 0.5 µg/mL (≈ 1.62 µM)
In vitro
  CC50: 24 µg/mL (≈ 77.7 µM)
HIV-1(IIIB)
  EC50: 0.03 µg/mL (≈ 0.0972 µM)
HIV-1/100-Ile
  EC50: 2.3 µg/mL (≈ 7.45 µM)
HIV-1/181-Cys
  EC50: 1.6 µg/mL (≈ 5.18 µM)

## C=CCOc1cc(NC(=S)c2ccoc2C)ccc1OC [Compound 73]
HIV-1/Lys-138
  EC50: 0.09 µg/mL (≈ 0.297 µM)
HIV-1/106-Ala
  EC50: 0.8 µg/mL (≈ 2.64 µM)
In vitro
  CC50: > 100 µg/mL
HIV-1(IIIB)
  EC50: 0.017 µg/mL (≈ 0.056 µM)
HIV-1/100-Ile
  EC50: 2.9 µg/mL (≈ 9.56 µM)
HIV-1/181-Cys
  EC50: 0.85 µg/mL (≈ 2.8 µM)

## C=CCOc1cc(NC(=S)c2ccoc2C)ccc1C#N [Compound 74]
HIV-1/Lys-138
  EC50: 0.09 µg/mL (≈ 0.302 µM)
HIV-1/106-Ala
  EC50: 0.45 µg/mL (≈ 1.51 µM)
In vitro
  CC50: > 100 µg/mL
HIV-1(IIIB)
  EC50: 0.015 µg/mL (≈ 0.0503 µM)
HIV-1/100-Ile
  EC50: 6 µg/mL (≈ 20.1 µM)
HIV-1/181-Cys
  EC50: 3 µg/mL (≈ 10.1 µM)

## CCOC(=O)c1cc(NC(=S)c2ccoc2C)ccc1C [Compound 75]
HIV-1/Lys-138
  EC50: 0.35 µg/mL (≈ 1.15 µM)
HIV-1/106-Ala
  EC50: 0.7 µg/mL (≈ 2.31 µM)
In vitro
  CC50: 16 µg/mL (≈ 52.7 µM)
HIV-1(IIIB)
  EC50: 0.009 µg/mL (≈ 0.0297 µM)
HIV-1/100-Ile
  EC50: 0.9 µg/mL (≈ 2.97 µM)
HIV-1/181-Cys
  EC50: 0.6 µg/mL (≈ 1.98 µM)

## C=CCOc1cc(NC(=S)c2sccc2C)ccc1Cl [Compound 76]
HIV-1/Lys-138
  EC50: 0.73 µg/mL (≈ 2.25 µM)
HIV-1/106-Ala
  EC50: ≥ 1 µg/mL
In vitro
  CC50: 5.3 µg/mL (≈ 16.4 µM)
HIV-1(IIIB)
  EC50: 0.035 µg/mL (≈ 0.108 µM)
HIV-1/100-Ile
  EC50: 2.7 µg/mL (≈ 8.34 µM)
HIV-1/181-Cys
  EC50: > 1 µg/mL

## C=CCOc1cc(NC(=S)c2sccc2C)ccc1C#N [Compound 77]
HIV-1/Lys-138
  EC50: 0.55 µg/mL (≈ 1.75 µM)
HIV-1/106-Ala
  EC50: ≥ 1 µg/mL
In vitro
  CC50: 3.6 µg/mL (≈ 11.4 µM)
HIV-1(IIIB)
  EC50: 0.045 µg/mL (≈ 0.143 µM)
HIV-1/100-Ile
  EC50: ≥ 1 µg/mL
HIV-1/181-Cys
  EC50: > 1 µg/mL

## C=CCOc1cc(NC(=S)c2sccc2C)ccc1OC [Compound 78]
HIV-1/Lys-138
  EC50: 1.13 µg/mL (≈ 3.54 µM)
HIV-1/106-Ala
  EC50: 2 µg/mL (≈ 6.26 µM)
In vitro
  CC50: 7.1 µg/mL (≈ 22.2 µM)
HIV-1(IIIB)
  EC50: 0.045 µg/mL (≈ 0.141 µM)
HIV-1/100-Ile
  EC50: 5 µg/mL (≈ 15.7 µM)
HIV-1/181-Cys
  EC50: 3.3 µg/mL (≈ 10.3 µM)

## O=C(OC1CCCCC1)c1cc(NC(=S)c2ccsc2)ccc1Cl [Compound 79]
HIV-1/Lys-138
  EC50: 0.07 µg/mL (≈ 0.184 µM)
HIV-1/106-Ala
  EC50: 0.07 µg/mL (≈ 0.184 µM)
In vitro
  CC50: 4.1 µg/mL (≈ 10.8 µM)
HIV-1(IIIB)
  EC50: 0.03 µg/mL (≈ 0.079 µM)
HIV-1/100-Ile
  EC50: 0.85 µg/mL (≈ 2.24 µM)
HIV-1/181-Cys
  EC50: 0.08 µg/mL (≈ 0.211 µM)

## O=C(OC1CCCCC1)c1cc(NC(=S)c2ccccc2Cl)ccc1Cl [Compound 80]
HIV-1/Lys-138
  EC50: 4 µg/mL (≈ 9.8 µM)
HIV-1/106-Ala
  EC50: 5 µg/mL (≈ 12.2 µM)
In vitro
  CC50: 8.3 µg/mL (≈ 20.3 µM)
HIV-1(IIIB)
  EC50: 0.5 µg/mL (≈ 1.22 µM)
HIV-1/100-Ile
  EC50: 4 µg/mL (≈ 9.8 µM)
HIV-1/181-Cys
  EC50: 3 µg/mL (≈ 7.35 µM)

## COc1ccccc1C(=S)Nc1ccc(Cl)c(C(=O)OC2CCCCC2)c1 [Compound 81]
HIV-1/Lys-138
  EC50: 0.6 µg/mL (≈ 1.49 µM)
HIV-1/106-Ala
  EC50: 0.65 µg/mL (≈ 1.61 µM)
In vitro
  CC50: 12 µg/mL (≈ 29.7 µM)
HIV-1(IIIB)
  EC50: 0.04 µg/mL (≈ 0.099 µM)
HIV-1/100-Ile
  EC50: 0.7 µg/mL (≈ 1.73 µM)
HIV-1/181-Cys
  EC50: 4.5 µg/mL (≈ 11.1 µM)

## O=C(OC1CCCCC1)c1cc(NC(=S)c2ccccc2)ccc1Cl [Compound 82]
HIV-1/Lys-138
  EC50: 0.55 µg/mL (≈ 1.47 µM)
HIV-1/106-Ala
  EC50: 1 µg/mL (≈ 2.67 µM)
In vitro
  CC50: 5.2 µg/mL (≈ 13.9 µM)
HIV-1(IIIB)
  EC50: 0.03 µg/mL (≈ 0.0802 µM)
HIV-1/100-Ile
  EC50: 2 µg/mL (≈ 5.35 µM)
HIV-1/181-Cys
  EC50: 0.8 µg/mL (≈ 2.14 µM)

## Cc1occc1C(=S)Nc1ccc(Cl)c(C(=O)OC2CCCCC2)c1 [Compound 83]
HIV-1/Lys-138
  EC50: 0.035 µg/mL (≈ 0.0926 µM)
HIV-1/106-Ala
  EC50: 0.057 µg/mL (≈ 0.151 µM)
In vitro
  CC50: 9.7 µg/mL (≈ 25.7 µM)
HIV-1(IIIB)
  EC50: 0.004 µg/mL (≈ 0.0106 µM)
HIV-1/100-Ile
  EC50: 0.17 µg/mL (≈ 0.45 µM)
HIV-1/181-Cys
  EC50: 0.07 µg/mL (≈ 0.185 µM)

## CC(C)OC(=O)c1cc(NC(=S)c2ccccc2N)ccc1Cl [Compound 85]
HIV-1/Lys-138
  EC50: 5.5 µg/mL (≈ 15.8 µM)
HIV-1/106-Ala
  EC50: 7.5 µg/mL (≈ 21.5 µM)
In vitro
  CC50: 6.7 µg/mL (≈ 19.2 µM)
HIV-1(IIIB)
  EC50: 0.5 µg/mL (≈ 1.43 µM)
HIV-1/100-Ile
  EC50: 6 µg/mL (≈ 17.2 µM)
HIV-1/181-Cys
  EC50: 5.3 µg/mL (≈ 15.2 µM)
